Counter-ions that a name gives are not always drawn. Like-named read-outs stand apart in the source and are kept apart here.
How the values were obtained:
Format in all cases: biochemical
recombinant human VAP-1 = target: T1, recombinant human VAP-1 (Homo sapiens, UniProt Q16853); assay: Amplex Red HRP-coupled amine oxidase activity evaluation, recombinant human VAP-1; settings: substrate 1 mM benzylamine; 30 min preincubation at 37° C.; read-out: Inhibitory Activity (IC50, nM) human VAP-1
T1 construct: purchased R&D systems
T1 sequence (Q16853 1-763): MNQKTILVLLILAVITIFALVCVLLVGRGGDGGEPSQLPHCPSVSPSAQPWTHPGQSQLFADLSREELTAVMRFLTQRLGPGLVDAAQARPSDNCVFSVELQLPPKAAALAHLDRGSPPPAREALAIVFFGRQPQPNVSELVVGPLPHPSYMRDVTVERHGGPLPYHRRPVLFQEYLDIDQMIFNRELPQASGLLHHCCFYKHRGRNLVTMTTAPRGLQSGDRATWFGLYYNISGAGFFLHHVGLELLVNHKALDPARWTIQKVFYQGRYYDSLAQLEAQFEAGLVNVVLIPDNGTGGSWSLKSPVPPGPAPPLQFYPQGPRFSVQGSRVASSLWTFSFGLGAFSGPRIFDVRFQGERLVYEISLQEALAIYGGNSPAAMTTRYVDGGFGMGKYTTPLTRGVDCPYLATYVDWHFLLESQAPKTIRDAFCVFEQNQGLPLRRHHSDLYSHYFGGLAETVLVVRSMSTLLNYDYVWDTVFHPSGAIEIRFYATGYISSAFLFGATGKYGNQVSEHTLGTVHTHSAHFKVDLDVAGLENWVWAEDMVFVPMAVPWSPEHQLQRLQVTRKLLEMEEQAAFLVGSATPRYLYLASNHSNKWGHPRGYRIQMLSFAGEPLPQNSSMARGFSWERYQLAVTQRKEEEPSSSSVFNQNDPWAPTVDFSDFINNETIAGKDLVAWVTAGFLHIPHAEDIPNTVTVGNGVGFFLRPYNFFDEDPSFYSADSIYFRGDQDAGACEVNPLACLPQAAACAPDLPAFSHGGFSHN
Protocol: (§1) The compounds according to the present technology were evaluated in terms of activity on recombinant human VAP-1 (R&D systems) by measuring the level of hydrogen peroxide in horseradish peroxidase (HRP)-coupled reaction using Amplex Red Hydrogen Peroxide Assay Kit (Molecular Probes, Invitrogen, USA). The experiment was carried out at room temperature using benzylamine as a substrate. In the HRP-coupled reaction, hydrogen peroxide oxidation of 10-acetyl-3,7-dihydroxyphenoxazine (Amplex Red reagent) produces resorufin, which is a highly fluorescent compound. Briefly, the test compound was dissolved in dimethyl sulfoxide (DMSO) at a concentration of 20 mM. The dose-response assessment was made by 1:3 serial dilution in DMSO, thereby creating an 8-point curve. The concentration of the upper part was controlled according to the efficacy of the compounds, followed by dilution with a reaction buffer solution to obtain a final DMSO concentration of less than 1%. To each well of a 96 black well plate, human VAP-1 purified in 50 mM sodium phosphate buffer solution (pH7.4) was added. The test compounds dissolved in DMSO were incubated with the human VAP-1 enzymes at 37° C. for 30 minutes. After 30-minute incubation, each well was added with a reaction mixture containing 200 uM Amplex Red reagent prepared from 50 mM sodium phosphate buffer solution (pH 7.4), 1 mM benzylamine, and 1 U/mL HRP. Fluorescence intensity was measured at several time points during 1-2 hours using a microplate reader (Flexstation3, Molecular Devices) under the wavelength condition exciting at 544 nm and reading the emission at 590 nm. The inhibitory effect of the compounds was measured as a decrease (%) in the signal rate as compared to the control group without any inhibitor (only diluted DMSO). Data was fixed to a logistic model with four variables and IC50 value was calculated using GraphPad Prism program.

[1] = target: T2, recombinant human MAO-A (monoamine oxidase-A) (Homo sapiens, UniProt P21397); assay: Amplex Red HRP-coupled amine oxidase activity evaluation, recombinant human MAO-A; settings: substrate 0.5 mM tyramine; read-out: Inhibitory Activity (IC50, nM) MAO-A
T2 construct: purchased Sigma-Aldrich
T2 sequence (P21397 1-527): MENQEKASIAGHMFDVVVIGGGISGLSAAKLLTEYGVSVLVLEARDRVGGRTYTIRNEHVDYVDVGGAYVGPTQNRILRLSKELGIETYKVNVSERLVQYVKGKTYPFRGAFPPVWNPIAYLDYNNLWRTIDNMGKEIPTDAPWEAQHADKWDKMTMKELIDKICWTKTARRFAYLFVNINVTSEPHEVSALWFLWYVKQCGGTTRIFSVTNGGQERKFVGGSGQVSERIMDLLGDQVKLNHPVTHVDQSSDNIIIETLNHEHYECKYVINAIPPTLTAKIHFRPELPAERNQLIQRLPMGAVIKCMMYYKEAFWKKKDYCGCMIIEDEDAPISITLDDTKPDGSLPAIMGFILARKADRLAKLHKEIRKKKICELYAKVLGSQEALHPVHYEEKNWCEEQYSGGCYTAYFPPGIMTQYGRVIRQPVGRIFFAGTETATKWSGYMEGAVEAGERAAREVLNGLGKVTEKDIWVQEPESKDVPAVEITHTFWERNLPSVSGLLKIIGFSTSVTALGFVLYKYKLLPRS
Protocol: [The source words this procedure for another target and says it was used here with some conditions changed.] as §1

[2] = target: T3, recombinant human MAO-B (monoamine oxidase-B) (Homo sapiens, UniProt P27338); assay: Amplex Red HRP-coupled amine oxidase activity evaluation, recombinant human MAO-B; settings: substrate 1 mM benzylamine; read-out: Inhibitory Activity (IC50, nM) MAO-B
T3 construct: purchased Sigma-Aldrich
T3 sequence (P27338 1-520): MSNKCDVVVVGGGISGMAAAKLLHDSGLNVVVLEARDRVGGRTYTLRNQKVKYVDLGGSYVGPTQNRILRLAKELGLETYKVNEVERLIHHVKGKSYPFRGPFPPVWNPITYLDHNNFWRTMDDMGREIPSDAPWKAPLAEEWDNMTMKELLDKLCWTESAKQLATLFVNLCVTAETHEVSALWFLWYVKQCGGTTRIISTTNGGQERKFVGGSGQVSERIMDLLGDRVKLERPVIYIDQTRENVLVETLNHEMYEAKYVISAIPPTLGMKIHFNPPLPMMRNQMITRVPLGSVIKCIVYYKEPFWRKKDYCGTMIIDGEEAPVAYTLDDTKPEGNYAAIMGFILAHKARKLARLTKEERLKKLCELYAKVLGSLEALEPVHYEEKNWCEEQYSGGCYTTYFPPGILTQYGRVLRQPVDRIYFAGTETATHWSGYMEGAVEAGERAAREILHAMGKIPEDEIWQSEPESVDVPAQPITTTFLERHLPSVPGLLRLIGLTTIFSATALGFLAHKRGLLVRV
Protocol: [The source words this procedure for another target and says it was used here with some conditions changed.] as §1

[3] = target: T4, recombinant human DAO (diamine oxidase) (Homo sapiens, UniProt P19801); assay: Amplex Red HRP-coupled amine oxidase activity evaluation, recombinant human DAO
T4 construct: purchased R&D systems
T4 sequence (P19801 20-751): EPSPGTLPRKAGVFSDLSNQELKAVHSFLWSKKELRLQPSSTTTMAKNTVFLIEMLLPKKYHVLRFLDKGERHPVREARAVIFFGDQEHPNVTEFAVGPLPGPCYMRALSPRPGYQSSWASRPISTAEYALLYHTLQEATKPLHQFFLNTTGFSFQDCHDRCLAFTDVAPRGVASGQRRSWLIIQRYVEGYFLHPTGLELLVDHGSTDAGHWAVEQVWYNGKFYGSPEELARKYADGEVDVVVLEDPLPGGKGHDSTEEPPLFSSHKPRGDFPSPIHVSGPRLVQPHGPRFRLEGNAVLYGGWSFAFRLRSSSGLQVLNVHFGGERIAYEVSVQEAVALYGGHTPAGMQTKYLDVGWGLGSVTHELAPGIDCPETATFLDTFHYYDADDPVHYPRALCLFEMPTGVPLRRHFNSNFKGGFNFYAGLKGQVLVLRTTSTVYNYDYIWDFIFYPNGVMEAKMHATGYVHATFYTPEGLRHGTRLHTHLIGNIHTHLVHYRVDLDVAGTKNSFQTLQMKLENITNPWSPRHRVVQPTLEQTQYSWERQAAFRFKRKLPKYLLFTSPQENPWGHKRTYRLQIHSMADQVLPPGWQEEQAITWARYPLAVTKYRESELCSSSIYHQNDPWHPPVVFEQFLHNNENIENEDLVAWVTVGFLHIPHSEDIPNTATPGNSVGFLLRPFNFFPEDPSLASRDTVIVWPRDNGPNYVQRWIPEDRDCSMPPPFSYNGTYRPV
Protocol: [The source words this procedure for another target and says it was used here with some conditions changed.] as §1

[4] = substrate 1 mM putrescine, read-out: Inhibitory Activity (IC50, nM) DAO

| Compound | IC50 (recombinant human VAP-1) [nM] | IC50 [1] [nM] | IC50 [2] [nM] | IC50 [3] [nM] | IC50 [3, 4] [nM] |
| --- | --- | --- | --- | --- | --- |
| CCn1cc(-c2cccc(-n3nnn(CC(CN)=C(F)F)c3=O)c2)ccc1=O [Example 12, 5-[3-[4-[2-(aminomethyl)-3,3-difluoro-allyl]-5-oxo-tetrazol-1-yl]phenyl]-1-ethyl-pyridin-2-one di-trifluoroacetate] | 0.9 | > 100000 | > 100000 | 10 |  |
| Cc1cc(-c2cccc(-n3nnn(CC(CN)=C(F)F)c3=O)c2)cc2c1NC(=O)CC2 [Example 13, 6-[3-[4-[2-(aminomethyl)-3,3-difluoro-allyl]-5-oxo-tetrazol-1-yl]phenyl]-8-methyl-3,4-dihydro-1H-quinolin-2-one trifluoroacetate] | 0.7 | > 100000 | 7800 |  | 12 |
| CN1C(=O)CCc2cc(-c3cccc(-n4nnn(CC(CN)=C(F)F)c4=O)c3)ccc21 [Example 14, 6-[3-[4-[2-(aminomethyl)-3,3-difluoro-allyl]-5-oxo-tetrazol-1-yl]phenyl]-1-methyl-3,4-dihydroquinolin-2-one trifluoroacetate] | 1.4 | > 100000 | 2470 | 12 |  |
| CCn1cc(-c2cccc(-n3nnn(CC(CN)=C(F)F)c3=O)c2)cn1 [Example 15, 1-[2-(aminomethyl)-3,3-difluoro-allyl]-4-[3-(1-ethylpyrazol-4-yl)phenyl]tetrazol-5-one trifluoroacetate] | 1 | > 100000 | 43500 | 113 |  |
| CS(=O)(=O)c1ccc(-c2ccc(-n3nnn(CC(CN)=C(F)F)c3=O)cc2)cc1 [Example 16, 1-[2-(aminomethyl)-3,3-difluoro-allyl]-4-[4-(4-methylsulfonylphenyl)phenyl]tetrazol-5-one trifluoroacetate] | 1.5 | > 100000 | 260 |  | 55 |
| NCC(Cn1nnn(-c2ccc(-c3ccc(N4CCNCC4)cc3)cc2)c1=O)=C(F)F [Example 17, 1-[2-(aminomethyl)-3,3-difluoro-allyl]-4-[4-(4-piperazin-1-ylphenyl)phenyl]tetrazol-5-one di-trifluoroacetate] | 1.2 | > 100000 | 3990 |  | 65 |
| CCn1cc(-c2ccc(-n3nnn(CC(CN)=C(F)F)c3=O)cc2)ccc1=O [Example 18, 5-[4-[4-[2-(aminomethyl)-3,3-difluoro-allyl]-5-oxo-tetrazol-1-yl]phenyl]-1-ethyl-pyridin-2-one trifluoroacetate] | 0.2 | > 100000 | 78 |  | > 100000 |
| NCC(Cn1nnn(-c2ccc(-c3ccc4c(c3)OCO4)cc2)c1=O)=C(F)F [Example 19, 1-[2-(aminomethyl)-3,3-difluoro-allyl]-4-[4-(1,3-benzodioxol-5-yl)phenyl]tetrazol-5-one trifluoroacetate] | 0.5 | > 100000 | 8.8 |  | 4890 |
| Cc1cc(-c2ccc(-n3nnn(CC(CN)=C(F)F)c3=O)cc2)cc2c1NC(=O)CC2 [Example 20, 6-[4-[4-[2-(aminomethyl)-3,3-difluoro-allyl]-5-oxo-tetrazol-1-yl]phenyl]-8-methyl-3,4-dihydro-1H-quinolin-2-one trifluoroacetate] | 0.4 | 82600 | 49 |  | > 100000 |
| CN1C(=O)CCc2cc(-c3ccc(-n4nnn(CC(CN)=C(F)F)c4=O)cc3)ccc21 [Example 21, 6-[4-[4-[2-(aminomethyl)-3,3-difluoro-allyl]-5-oxo-tetrazol-1-yl]phenyl]-1-methyl-3,4-dihydroquinolin-2-one trifluoroacetate] | 0.5 | > 100000 | 43 |  | 38 |
| CCn1cc(-c2ccc(-n3nnn(CC(CN)=C(F)F)c3=O)cc2)cn1 [Example 22, 1-[2-(aminomethyl)-3,3-difluoro-allyl]-4-[4-(1-ethylpyrazol-4-yl)phenyl]tetrazol-5-one trifluoroacetate] | 0.3 | 98400 | 74 | 95 |  |
| Cc1ccc(-c2ccc(S(C)(=O)=O)cc2)nc1-n1nnn(CC(CN)=C(F)F)c1=O [Example 23, 1-[2-(aminomethyl)-3,3-difluoro-allyl]-4-[3-methyl-6-(4-methylsulfonylphenyl)-2-pyridyl]tetrazol-5-one trifluoroacetate] | > 100 | > 100000 | 59400 |  | > 100000 |

— patent US12110279B2, “Triazolones, tetrazolones, and imidazolones, or their salts, and pharmaceutical compositions comprising the same” (Yuhan Corporation, priority 2021, dated 2024)
